Measured values taken from US8513289B2, “P38 kinase inhibiting agents” (Merck Sharp & Dohme Corp., priority 2009, dated 2013).

tested on: hWB; test: IC50 hWB (TNF-α release assay); type: cell-based; conditions: Homo sapiens

IC50 | Structure (SMILES)
885 nM | O=C(NCc1nnc(-c2cc3ncccn3n2)s1)c1cc(C(=O)c2c(F)cc(F)cc2F)c[nH]1 [Example 29]
84 nM | O=C(NCc1nnc(-c2ccn[nH]2)s1)c1cc(C(=O)c2c(F)cc(F)cc2F)c[nH]1 [Example 32, N-{[5-(1H-pyrazol-5-yl)-1,3,4-thiadiazol-2-yl]methyl}-4-(2,4,6-trifluorobenzoyl)-1H-pyrrole-2-carboxamide]
330 nM | O=C(NCc1nnc(C2CC2)s1)c1cc(C(=O)c2c(F)cc(F)cc2F)c[nH]1 [Example 4, N-[(5-cyclopropyl-1,3,4-thiadiazol-2-yl)methyl]-4-(2,4,6-trifluorobenzoyl)-1H-pyrrole-2-carboxamide]
614 nM | O=C(NCc1nnc(-c2ccco2)s1)c1cc(C(=O)c2c(F)cc(F)cc2F)c[nH]1 [Example 15, N-{[5-(2-furyl)-1,3,4-thiadiazol-2-yl]methyl}-4-(2,4,6-trifluorobenzoyl)-1H-pyrrole-2-carboxamide]
1360 nM | O=C(NCc1nnc(-c2ccn[nH]2)s1)c1cc(Cc2c(F)cc(F)cc2F)c[nH]1 [Example 45, N-{[5-(1H-pyrazol-5-yl)-1,3,4-thiadiazol-2-yl]methyl}-4-(2,4,6-trifluorobenzyl)-1H-pyrrole-2-carboxamide]

molecular target: T1, p38-α (Homo sapiens, UniProt Q16539); test: p38 kinase assay, p38-α with peptide substrate (Caliper LabChip); type: biochemical; conditions: read-out: IC50 p38a*peptide
T1 construct: purchased Millipore
Description: Alternatively, p38 kinase assays were performed in a reaction volume of 70 µL in a 384-well plate, at 30° for […] under the following conditions: 50 mM Hepes, pH 7.4, 10 mM MgCl2, 1 mg/ml FA Free BSA, 1 mM DTT, 10 μM ATP, 10 μM p38 peptide [Caliper Life Sciences FL-Peptide 8 (5-FAM-IPTSPITTTYFFEKKK-COOH)] and 5.7 nM p38-α (Millipore), or 14.3 nM unactivated MAPKAP kinase-2, 0.18 nM p38-α (Millipore) and 2 uM RSK peptide [Caliper Life Sciences FL-Peptide 11 (5-FAM-KKLNRTLSVA-COOH)]. Serial dilutions of compounds were added to each reaction in 700 nL DMSO. 700 nL of DMSO was added to the control wells of the reaction plate as the no inhibitor control for each inhibitor titration. The reaction was terminated by the addition of 15 μL of a 100 mM EDTA. Product formation was analyzed using the Caliper LabChip 3000. The Separation buffer contained 100 mM HEPES pH 7.5, 0.015% Brij-35, 2.5% Coating Reagent #3 (Caliper Life Sciences) and 10 mM EDTA. Calculation of the substrate product ratios are performed using the HTS Well Analyzer software provided by Caliper Life Sciences and the percent inhibition at each compound concentration is determined.

T1 sequence (Q16539 whole entry): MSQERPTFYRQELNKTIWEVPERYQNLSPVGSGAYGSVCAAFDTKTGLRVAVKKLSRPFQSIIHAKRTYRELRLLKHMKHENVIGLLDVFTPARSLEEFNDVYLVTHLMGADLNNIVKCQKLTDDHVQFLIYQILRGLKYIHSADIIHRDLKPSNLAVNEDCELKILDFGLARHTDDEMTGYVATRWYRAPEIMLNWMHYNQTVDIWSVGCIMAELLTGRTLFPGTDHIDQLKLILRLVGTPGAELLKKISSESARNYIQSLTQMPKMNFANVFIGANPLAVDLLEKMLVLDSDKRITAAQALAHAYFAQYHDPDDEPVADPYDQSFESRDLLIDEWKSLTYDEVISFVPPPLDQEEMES

Structure (SMILES) | IC50
O=C(NCc1nnc(-c2cc(C(F)(F)F)n[nH]2)s1)c1cc(C(=O)c2c(F)cc(F)cc2F)c[nH]1 [Example 27, 4-(2,4,6-trifluorobenzoyl)-N-({5-[3-(trifluoromethyl)-1H-pyrazol-5-yl]-1,3,4-thiadiazol-2-yl}methyl)-1H-pyrrole-2-carboxamide] | 1400 nM
CC(C)(C)c1nnc(CNC(=O)c2cc(C(=O)c3c(F)cc(F)cc3F)c[nH]2)s1 [Example 5, N-[(5-tert-butyl-1,3,4-thiadiazol-2-yl)methyl]-4-(2,4,6-trifluorobenzoyl)-1H-pyrrole-2-carboxamide] | 608 nM
O=C(NCc1nnc(-c2ccn[nH]2)s1)c1cc(Cc2c(F)cc(F)cc2F)c[nH]1 [Example 45, N-{[5-(1H-pyrazol-5-yl)-1,3,4-thiadiazol-2-yl]methyl}-4-(2,4,6-trifluorobenzyl)-1H-pyrrole-2-carboxamide] | 354 nM
O=C(NCc1nnc(C2CCC2)s1)c1cc(C(=O)c2c(F)cc(F)cc2F)c[nH]1 [Example 22, N-[(5-cyclobutyl-1,3,4-thiadiazol-2-yl)methyl]-4-(2,4,6-trifluorobenzoyl)-1H-pyrrole-2-carboxamide] | 489 nM
CC(C)c1nnc(CNC(=O)c2cc(C(=O)c3c(F)cc(F)cc3F)c[nH]2)s1 [Example 3, N-[(5-isopropyl-1,3,4-thiadiazol-2-yl)methyl]-4-(2,4,6-trifluorobenzoyl)-1-H-pyrrole-2-carboxamide] | 479 nM
O=C(NCc1nnc(-c2csnn2)s1)c1cc(C(=O)c2c(F)cc(F)cc2F)c[nH]1 [Example 30, N-{[5-(1,2,3-thiadiazol-4-yl)-1,3,4-thiadiazol-2-yl]methyl}-4-(2,4,6-trifluorobenzoyl)-1H-pyrrole-2-carboxamide] | 634 nM
Cc1nnc(CNC(=O)c2cc(C(=O)c3ccc(F)cc3F)c[nH]2)s1 [Example 39, 4-(2,4-difluorobenzoyl)-N-[(5-methyl-1,3,4-thiadiazol-2-yl)methyl]-1H-pyrrole-2-carboxamide] | 222 nM
CC1(c2nnc(CNC(=O)c3cc(C(=O)c4c(F)cc(F)cc4F)c[nH]3)s2)CC1 [Example 23, N-{[5-(1-methylcyclopropyl)-1,3,4-thiadiazol-2-yl]methyl}-4-(2,4,6-trifluorobenzoyl)-1H-pyrrole-2-carboxamide] | 826 nM
O=C(NCc1nnc(-c2ccccn2)s1)c1cc(Cc2c(F)cc(F)cc2F)c[nH]1 [Example 44, N-[(5-pyridin-2-yl-1,3,4-thiadiazol-2-yl)methyl]-4-(2,4,6-trifluorobenzyl)-1H-pyrrole-2-carboxamide] | 555 nM
CCC(C)c1nnc(CNC(=O)c2cc(C(=O)c3c(F)cc(F)cc3F)c[nH]2)s1 (stereo not drawn) [Example 24, N-[(5-sec-butyl-1,3,4-thiadiazol-2-yl)methyl]-4-(2,4,6-trifluorobenzoyl)-1H-pyrrole-2-carboxamide] | 1020 nM

Stronger by IC50, values ahead:

IC50 | Structure (SMILES)
17 nM | O=C(NCc1nnc(-c2cc3ncccn3n2)s1)c1cc(C(=O)c2c(F)cc(F)cc2F)c[nH]1 [Example 29]
173 nM | O=C(NCc1nnc(-c2cccc(=O)[nH]2)s1)c1cc(C(=O)c2c(F)cc(F)cc2F)c[nH]1 [Example 37, N-{[5-(6-oxo-1,6-dihydropyridin-2-yl)-1,3,4-thiadiazol-2-yl]methyl}-4-(2,4,6-trifluorobenzoyl)-1H-pyrrole-2-carboxamide]
31 nM | COc1ccc(-c2nnc(CNC(=O)c3cc(C(=O)c4c(F)cc(F)cc4F)c[nH]3)s2)cc1 [Example 10, N-{[5-(4-methoxyphenyl)-1,3,4-thiadiazol-2-yl]methyl}-4-(2,4,6-trifluorobenzoyl)-1H-pyrrole-2-carboxamide]
43 nM | O=C(NCc1nnc(-c2ccn[nH]2)s1)c1cc(C(=O)c2c(F)cc(F)cc2F)c[nH]1 [Example 32, N-{[5-(1H-pyrazol-5-yl)-1,3,4-thiadiazol-2-yl]methyl}-4-(2,4,6-trifluorobenzoyl)-1H-pyrrole-2-carboxamide]
180 nM | O=C(NCc1nnc(-c2cn[nH]n2)s1)c1cc(C(=O)c2c(F)cc(F)cc2F)c[nH]1 [Example 34, N-{[5-(2H-1,2,3-triazol-4-yl)-1,3,4-thiadiazol-2-yl]methyl}-4-(2,4,6-trifluorobenzoyl)-1,1-pyrrole-2-carboxamide]
73 nM | O=C(NCc1nnc(C2CC2)s1)c1cc(C(=O)c2c(F)cc(F)cc2F)c[nH]1 [Example 4, N-[(5-cyclopropyl-1,3,4-thiadiazol-2-yl)methyl]-4-(2,4,6-trifluorobenzoyl)-1H-pyrrole-2-carboxamide]
98 nM | O=C(NCc1nnc(-c2ccco2)s1)c1cc(C(=O)c2c(F)cc(F)cc2F)c[nH]1 [Example 15, N-{[5-(2-furyl)-1,3,4-thiadiazol-2-yl]methyl}-4-(2,4,6-trifluorobenzoyl)-1H-pyrrole-2-carboxamide]
135 nM | CCOc1ncccc1-c1nnc(CNC(=O)c2cc(C(=O)c3c(F)cc(F)cc3F)c[nH]2)s1 [Example 16, N-{[5-(2-ethoxypyridin-3-yl)-1,3,4-thiadiazol-2-yl]methyl}-4-(2,4,6-trifluorobenzoyl)-1H-pyrrole-2-carboxamide]
36 nM | O=C(NCc1nnc(-c2[nH]nc3c2CCC3)s1)c1cc(C(=O)c2c(F)cc(F)cc2F)c[nH]1 [Example 31, N-{[5-(2,4,5,6-tetrahydrocyclopenta[c]pyrazol-3-yl)-1,3,4-thiadiazol-2-yl]methyl}-4-(2,4,6-trifluorobenzoyl)-1H-pyrrole-2-carboxamide]
35.1 nM | Cc1cc(-c2nnc(CNC(=O)c3cc(C(=O)c4c(F)cc(F)cc4F)c[nH]3)s2)nn1C [Example 33, N-{[5-(1,5-dimethyl-1H-pyrazol-3-yl)-1,3,4-thiadiazol-2-yl]methyl}-4-(2,4,6-trifluorobenzoyl)-1H-pyrrole-2-carboxamide]
94 nM | COc1cccc(-c2nnc(CNC(=O)c3cc(C(=O)c4c(F)cc(F)cc4F)c[nH]3)s2)n1 [Example 18, N-{[5-(6-methoxypyridin-2-yl)-1,3,4-thiadiazol-2-yl]methyl}-4-(2,4,6-trifluorobenzoyl)-1H-pyrrole-2-carboxamide]
150 nM | Cc1nnc(CNC(=O)c2cc(C(=O)c3c(F)cccc3F)c[nH]2)s1 [Example 40, 4-(2,6-difluorobenzoyl)-N-[(5-methyl-1,3,4-thiadiazol-2-yl)methyl]-1H-pyrrole-2-carboxamide]
26.9 nM | O=C(NCc1nnc(-c2cc[nH]c(=O)c2)s1)c1cc(C(=O)c2c(F)cc(F)cc2F)c[nH]1 [Example 38, N-{[5-(2-oxo-1,2-dihydropyridin-4-yl)-1,3,4-thiadiazol-2-yl]methyl}-4-(2,4,6-trifluorobenzoyl)-1H-pyrrole-2-carboxamide]
85 nM | COc1cc(-c2nnc(CNC(=O)c3cc(C(=O)c4c(F)cc(F)cc4F)c[nH]3)s2)ccn1 [Example 19, N-{[5-(2-methoxypyridin-4-yl)-1,3,4-thiadiazol-2-yl]methyl}-4-(2,4,6-trifluorobenzoyl)-1H-pyrrole-2-carboxamide]
70.4 nM | O=C(NCc1nnc(-c2ccc(=O)[nH]c2)s1)c1cc(C(=O)c2c(F)cc(F)cc2F)c[nH]1 [Example 36, N-{[5-(6-oxo-1,6-dihydropyridin-3-yl)-1,3,4-thiadiazol-2-yl]methyl}-4-(2,4,6-trifluorobenzoyl)-1H-pyrrole-2-carboxamide]
